Results reported in patent US20090069398A1, “Pyrazolyl Carboxamides” (Bayer CropScience AG, priority 2005, published 2009).
Values belong to the compound of their own block, whether it stands above or below them.

Key:
Puccinia recondita = assay: Puccinia test (wheat)/protective; format: in vivo; conditions: protective, application rate 1000 ppm, evaluation 10 days after inoculation
Experimental: (§1) [table] To produce a suitable preparation of active compound, 1 part by weight of active compound is mixed with the stated amounts of solvent and emulsifier, and the concentrate is diluted with water to the desired concentration. To test for protective activity, young plants are sprayed with the active compound preparation at the stated application rate. After the spray coating has dried on, the plants are sprayed with a conidia suspension of Puccinia recondita. The plants remain in an incubation cabin at 20° C. and 100% relative atmospheric humidity for 48 hours. The plants are then placed in a greenhouse at a temperature of about 20° C. and a relative atmospheric humidity of 80% to promote the development of rust pustules. Evaluation is carried out 10 days after the inoculation. 0% means an efficacy which corresponds to that of the control, whereas an efficacy of 100% means that no infection is observed.

Alternaria solani = assay: Alternaria test (tomato)/protective; format: in vivo; conditions: protective, application rate 500 ppm, evaluation 7 days after inoculation
Experimental: [table] To produce a suitable preparation of active compound, 1 part by weight of active compound is mixed with the stated amounts of solvent and emulsifier, and the concentrate is diluted with water to the desired concentration. […] 1 day after the treatment, the plants are inoculated with a spore suspension of Alternaria solani and then remain at 100% relative humidity and 20° C. for 24 h. The plants then remain at 96% relative atmospheric humidity and a temperature of 20° C. Evaluation is carried out 7 days after the inoculation. 0% means an efficacy which corresponds to that of the control, whereas an efficacy of 100% means that no infection is observed.

[1] = log P determination by HPLC on reversed-phase column (EEC Directive 79/831 Annex V.A8); format: physicochemical; conditions: reversed-phase HPLC column (C 18); pH 2.3; HPLC reversed-phase C 18, 43° C.; 0.1% aqueous phosphoric acid/acetonitrile
Experimental: The log P values given in the Tables and Preparation Examples above are determined in accordance with EEC Directive 79/831 Annex V.A8 by HPLC (High Performance Liquid Chromatography) on reversed-phase column (C 18). Temperature: 43° C. The determination is carried out in the acidic range at pH 2.3 using the mobile phases 0.1% aqueous phosphoric acid and acetonitrile; linear gradient from 10% acetonitrile to 90% acetonitrile. Calibration is carried out using unbranched alkan-2-ones (having 3 to 16 carbon atoms) with known log P values (determination of the log P values by the retention times using linear interpolation between two successive alkanones).

Pyrenophora teres = Pyrenophora teres test (barley)/protective; format: in vivo; conditions: protective, application rate 1000 ppm, evaluation 8 days after inoculation
Experimental: as §1, with “of Pyrenophora teres.” for “of Puccinia recondita.”, “of 80%.” for “of 80% to promote the development of rust pustules.”, “out 8” for “out 10”

Botrytis cinerea = assay: Botrytis test (cucumber)/protective; format: in vivo; conditions: protective, application rate 500 ppm, evaluation 5-6 days after inoculation
Experimental: [table] To produce a suitable preparation of active compound, 1 part by weight of active compound is mixed with the stated amounts of solvent and emulsifier, and the concentrate is diluted with water to the desired concentration. To test for protective activity, young cucumber plants are sprayed with the active compound preparation at the stated application rate. 1 day after the treatment, the plants are inoculated with a spore suspension of Botrytis cinerea and then remain at 100% relative humidity and 20° C. for 48 h. The plants then remain at 96% relative atmospheric humidity and a temperature of 13° C. Evaluation is carried out 5-6 days after the inoculation. 0% means an efficacy which corresponds to that of the control, whereas an efficacy of 100% means that no infection is observed.

SMILES: CCn1cc(C(=O)Nc2ccc(F)cc2-c2ccc(Cl)c(Cl)c2)c(C(F)F)n1 [drawing 16]
- Efficacy in % (Puccinia recondita): 95%

SMILES: CCn1cc(C(=O)Nc2ccc(F)cc2-c2ccc(Cl)c(F)c2)c(C(F)F)n1 [drawing 20]
- Efficacy in % (Alternaria solani): 95%

- chromatographic logP [1]: 4.53
SMILES: Cn1nc(C(C)(C)C)c(C(=O)Nc2ccc(F)cc2-c2ccc(Cl)c(Cl)c2)c1Cl [Example 5]

SMILES: CCn1cc(C(=O)Nc2ccc(F)cc2-c2ccc(Cl)c(Cl)c2)c(C(F)F)n1 [drawing 17]
- Efficacy in % (Pyrenophora teres): 100%

SMILES: CCn1cc(C(=O)Nc2ccc(F)cc2-c2ccc(Cl)c(Cl)c2)c(C(F)F)n1 [drawing 19]
- Efficacy in % (Alternaria solani): 95%

- chromatographic logP [1]: 3.34
SMILES: CCn1cc(C(=O)Nc2ccc(F)cc2-c2ccc(Cl)c(F)c2)c(C(F)F)n1 [Example 2, N-(4′-chloro-3′,5-difluorobiphenyl-2-yl)-3-(difluoromethyl)-1-ethyl-1H-pyrazole-4-carboxamide]

SMILES: Cn1nc(C(C)(C)C)c(C(=O)Nc2ccc(F)cc2-c2ccc(Cl)c(Cl)c2)c1Cl [drawing 18]
- Efficacy in % (Botrytis cinerea): 70%

- chromatographic logP [1]: 3.61
SMILES: CCn1cc(C(=O)Nc2ccc(F)cc2-c2ccc(Cl)c(Cl)c2)c(C(F)F)n1 [Example 1, N-(3′,4′-dichloro-5-fluorobiphenyl-2-yl)-3-(difluoromethyl)-1-ethyl-1H-pyrazole-4-carboxamide]
